Data on six molecules can be found in ChEMBL document CHEMBL5543131, “Discovery of Highly Potent Solute Carrier 13 Member 5 (SLC13A5) Inhibitors for the Treatment of Hyperlipidemia” (J Med Chem, 2024).

Activity calls are given as the source filed them. No cut-off for these calls is given here.

Data set [1] concerns AML12. Put plainly: Effect on lipid accumulation in oleic and palmitic acid induced mouse AML12 cells assessed as decrease in total cholesterol level. Format: functional, cell-based. The following applies: dose 3-30 µM.
Data set [2] has as its system AML12. Put plainly: Effect on lipid accumulation in oleic and palmitic acid induced mouse AML12 cells assessed as decrease in triglyceride level. Format: functional, cell-based. The following applies: dose 3-30 µM.
The subject of data set [3] is AML12. Put plainly: Effect on lipid accumulation in oleic and palmitic acid induced mouse AML12 cells assessed as decrease in triglyceride level at 3 to 30 uM. Format: functional, cell-based. The following applies: dose 3-30 µM.
The subject of data set [4] is AML12. Put plainly: Effect on lipid accumulation in oleic and palmitic acid induced mouse AML12 cells assessed as decrease in total cholesterol level at 3 to 30 uM. The following applies: dose 3-30 µM. In kind it is functional, cell-based.
Data set [5] relates to O=C(O)CC(O)(CCc1ccc(-c2ccccc2)cc1)C(=O)O. Put plainly: Binding affinity to SLC13A5 (unknown origin) assessed as Km. The following applies: Homo sapiens.

By Km is commonly meant the concentration of substrate that gives half-maximal velocity.

Sequence of Na(+)/citrate cotransporter (Homo sapiens), Q86YT5 (Q86YT5 whole entry): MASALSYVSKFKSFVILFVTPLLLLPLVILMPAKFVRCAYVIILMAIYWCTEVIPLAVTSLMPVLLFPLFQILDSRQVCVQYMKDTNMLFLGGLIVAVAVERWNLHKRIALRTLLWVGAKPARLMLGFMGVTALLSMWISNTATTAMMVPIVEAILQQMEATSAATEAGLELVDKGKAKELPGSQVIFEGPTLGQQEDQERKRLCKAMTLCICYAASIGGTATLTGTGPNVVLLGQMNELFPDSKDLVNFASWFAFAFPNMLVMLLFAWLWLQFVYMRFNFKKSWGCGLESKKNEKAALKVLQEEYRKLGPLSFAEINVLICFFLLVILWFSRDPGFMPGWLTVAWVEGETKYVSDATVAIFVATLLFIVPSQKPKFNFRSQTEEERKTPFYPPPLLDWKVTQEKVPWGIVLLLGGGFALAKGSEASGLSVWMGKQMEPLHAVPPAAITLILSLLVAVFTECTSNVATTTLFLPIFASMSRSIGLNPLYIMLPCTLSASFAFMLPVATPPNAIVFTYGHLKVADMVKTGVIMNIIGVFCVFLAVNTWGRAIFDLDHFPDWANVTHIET

Consider `O=C(O)CC(O)(CCc1ccc2ccccc2c1)C(=O)O` (stereo unspecified), for which the Activity entry with AML12 [1] and with AML12 [2] was “Dose-Dependent Effect” each time.
Regarding `CC(C)(C)c1ccc(CC[C@@](O)(CC(=O)O)C(=O)O)cc1`, the result with AML12 [3] and with AML12 [4] was inactive.
For `CCn1nccc1-c1ccc(CCC(O)(CC(=O)O)C(=O)O)cc1` (stereo unspecified), in the data set on AML12 [3], the outcome was inactive. In the data set with AML12 [1], the Activity result was “Dose-Dependent Effect”.
As for “Na(+)/citrate cotransporter (Homo sapiens), Q86YT5”, in data set [5], the Km was 0.19 µM.
Turning to `COc1ccccc1-c1ccc(CCC(O)(CC(=O)O)C(=O)O)cc1` (stereo unspecified), the Activity result in the data set on AML12 [1] and in the data set with AML12 [2] was “Dose-Dependent Effect” throughout.
Regarding `O=C(O)CC(O)(CCc1nc2ccccc2s1)C(=O)O` (stereo unspecified), the outcome in the data set with AML12 [3] was inactive. In addition, the Activity entry in the data set with AML12 [1] is “Dose-Dependent Effect”.
